DC50 and Dmax data for 23 molecules are collected here from US20250215012A1, “IKZF2 DEGRADERS AND USES THEREOF” (REGENTS OF THE UNIVERSITY OF MICHIGAN, priority 2022, published 2025).

This test concerns the target IKZF2 (Homo sapiens (Human), UniProt Q96SW2+Q9UKS7). As to the kind of experiment: IKZF2 HiBiT Assay (Jurkat-IKZF2-HiBiT cell line). It counts as cell-based. The following applies: Jurkat-IKZF2-HiBiT cells, 24 hours; for DC50: read-out: HiBit assay degradation analysis DC50; for Dmax: read-out: HiBit assay degradation analysis Dmax. An outline of the steps: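 Jurkat cells carrying HiBiT-tagged IKZF2 were exposed to serially diluted compound for 24 h at 37 °C. Remaining IKZF2 was measured by Nano-Glo HiBiT lytic luminescence after 10-20 min at room temperature. Signal was normalized to DMSO, and IC50 came from a four-parameter variable-slope fit.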

Sequence of IKZF2 (Q9UKS7 whole entry): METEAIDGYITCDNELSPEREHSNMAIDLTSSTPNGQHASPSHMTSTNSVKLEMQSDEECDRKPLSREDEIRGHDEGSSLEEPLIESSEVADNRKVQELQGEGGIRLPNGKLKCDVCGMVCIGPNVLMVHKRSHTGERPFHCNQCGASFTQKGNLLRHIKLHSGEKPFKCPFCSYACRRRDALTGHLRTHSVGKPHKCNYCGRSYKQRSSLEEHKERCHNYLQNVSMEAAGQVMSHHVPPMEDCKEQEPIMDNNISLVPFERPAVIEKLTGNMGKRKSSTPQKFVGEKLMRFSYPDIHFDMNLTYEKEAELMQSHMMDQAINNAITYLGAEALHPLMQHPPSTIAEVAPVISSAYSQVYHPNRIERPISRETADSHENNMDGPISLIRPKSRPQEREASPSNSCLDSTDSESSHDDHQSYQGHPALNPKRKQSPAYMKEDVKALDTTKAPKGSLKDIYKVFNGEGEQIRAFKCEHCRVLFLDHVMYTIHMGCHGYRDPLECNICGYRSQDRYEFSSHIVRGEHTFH
Sequence of IKZF2 (Q96SW2 whole entry): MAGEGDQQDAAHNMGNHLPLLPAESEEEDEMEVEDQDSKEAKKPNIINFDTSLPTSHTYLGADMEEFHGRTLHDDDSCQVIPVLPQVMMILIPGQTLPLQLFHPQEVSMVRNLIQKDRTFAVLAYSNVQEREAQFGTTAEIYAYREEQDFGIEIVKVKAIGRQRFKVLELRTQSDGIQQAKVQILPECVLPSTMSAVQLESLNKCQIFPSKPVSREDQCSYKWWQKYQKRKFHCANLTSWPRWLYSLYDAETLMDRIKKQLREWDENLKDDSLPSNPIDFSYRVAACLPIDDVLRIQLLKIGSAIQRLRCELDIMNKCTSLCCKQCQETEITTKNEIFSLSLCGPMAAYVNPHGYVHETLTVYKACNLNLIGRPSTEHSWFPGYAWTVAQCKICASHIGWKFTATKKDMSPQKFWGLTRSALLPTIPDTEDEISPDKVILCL
Sequence of IKZF2 (Q16531 whole entry partner): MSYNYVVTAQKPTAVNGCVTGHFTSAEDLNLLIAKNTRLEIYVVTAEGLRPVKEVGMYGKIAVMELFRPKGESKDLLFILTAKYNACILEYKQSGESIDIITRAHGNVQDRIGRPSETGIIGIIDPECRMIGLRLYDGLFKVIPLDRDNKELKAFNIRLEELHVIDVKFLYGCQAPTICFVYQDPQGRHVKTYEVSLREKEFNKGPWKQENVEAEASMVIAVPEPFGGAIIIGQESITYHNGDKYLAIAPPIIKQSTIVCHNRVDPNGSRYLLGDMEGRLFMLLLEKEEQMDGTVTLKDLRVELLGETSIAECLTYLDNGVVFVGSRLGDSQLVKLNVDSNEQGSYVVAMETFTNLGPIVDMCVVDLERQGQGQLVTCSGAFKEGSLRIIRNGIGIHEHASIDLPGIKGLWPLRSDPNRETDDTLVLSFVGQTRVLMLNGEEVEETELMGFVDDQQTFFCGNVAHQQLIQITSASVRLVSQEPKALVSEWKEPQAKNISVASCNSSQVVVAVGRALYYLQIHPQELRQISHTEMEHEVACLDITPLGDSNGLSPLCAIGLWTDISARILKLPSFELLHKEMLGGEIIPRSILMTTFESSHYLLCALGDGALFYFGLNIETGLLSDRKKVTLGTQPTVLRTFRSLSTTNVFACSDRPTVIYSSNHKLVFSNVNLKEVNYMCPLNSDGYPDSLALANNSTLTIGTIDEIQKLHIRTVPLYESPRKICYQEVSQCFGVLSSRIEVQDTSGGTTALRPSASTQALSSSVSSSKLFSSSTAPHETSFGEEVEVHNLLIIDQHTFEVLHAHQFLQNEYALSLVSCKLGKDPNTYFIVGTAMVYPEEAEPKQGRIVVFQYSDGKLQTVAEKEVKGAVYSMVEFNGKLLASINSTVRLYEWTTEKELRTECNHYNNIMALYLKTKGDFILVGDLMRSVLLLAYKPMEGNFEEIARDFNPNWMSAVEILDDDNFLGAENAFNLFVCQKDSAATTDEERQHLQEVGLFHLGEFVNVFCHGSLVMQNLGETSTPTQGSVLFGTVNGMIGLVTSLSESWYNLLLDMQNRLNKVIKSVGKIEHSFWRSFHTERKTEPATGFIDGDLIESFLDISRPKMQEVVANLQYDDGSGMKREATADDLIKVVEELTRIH

Take `O=C1CCC(N2Cc3c(ccc4c3OCC43CCN(CC4(c5ccccc5)CC4)CC3)C2=O)C(=O)N1` (stereo not shown) [Compound A333, 3-(6-oxo-1′-((1-phenylcyclopropyl)methyl)-6,8-dihydro-2H,7H-spiro[furo[2,3-e]isoindole-3,4′-piperidin]-7-yl)piperidine-2,6-dione]: the DC50 was more than 500 nM and the Dmax was 40 to 60%.

Regarding `O=C1CCC(N2Cc3c(ccc4c3OCC43CCN(CC4(c5ccccc5)CCC4)CC3)C2=O)C(=O)N1` (stereo not shown) [Compound A334, 3-(6-oxo-1′-((1-phenylcyclobutyl)methyl)-6,8-dihydro-2H,7H-spiro[furo[2,3-e]isoindole-3,4′-piperidin]-7-yl)piperidine-2,6-dione], the DC50 is more than 500 nM and the Dmax lay within 40 to 60%.

For the molecule `O=C1CCC(N2Cc3c(ccc4c3OCC43CCN(Cc4ncn(-c5ccccc5)n4)CC3)C2=O)C(=O)N1` (stereo not shown) [Compound A335, 3-(6-oxo-1′-((1-phenyl-1H-1,2,4-triazol-3-yl)methyl)-6,8-dihydro-2H,7H-spiro[furo[2,3-e]isoindole-3,4′-piperidin]-7-yl)piperidine-2,6-dione], the DC50 was more than 500 nM and the Dmax was less than 40%.

As to `O=C1CCC(N2Cc3c(ccc4c3OCC43CCN(Cc4cnn(S(=O)(=O)c5ccccc5)c4)CC3)C2=O)C(=O)N1` (stereo not shown) [Compound A336, 3-(6-oxo-1′-((1-(phenylsulfonyl)-1H-pyrazol-4-yl)methyl)-6,8-dihydro-2H,7H-spiro[furo[2,3-e]isoindole-3,4′-piperidin]-7-yl)piperidine-2,6-dione], the DC50 was more than 500 nM and the Dmax lay in the range of 40 to 60%.

Consider `O=C1CCC(N2Cc3c(ccc4c3OCC43CCN(Cc4cnn(S(=O)(=O)c5ccccc5F)c4)CC3)C2=O)C(=O)N1` (stereo not shown) [Compound A337, 3-(1′-((1-((2-fluorophenyl)sulfonyl)-1H-pyrazol-4-yl)methyl)-6-oxo-6,8-dihydro-2H,7H-spiro[furo[2,3-e]isoindole-3,4′-piperidin]-7-yl)piperidine-2,6-dione], for which the DC50 was in the range of 50 to 200 nM and the Dmax lay in the range of 60 to 80%.

Regarding `O=C1CCC(N2Cc3c(ccc4c3OCC43CCN(Cc4ccc(OCc5ccccc5)cn4)CC3)C2=O)C(=O)N1` (stereo not shown) [Compound A338, 3-(1′-((5-(benzyloxy)pyridin-2-yl)methyl)-6-oxo-6,8-dihydro-2H,7H-spiro[furo[2,3-e]isoindole-3,4′-piperidin]-7-yl)piperidine-2,6-dione], the DC50 is more than 500 nM and the Dmax was less than 40%.

In the case of `O=C1CCC(N2Cc3c(ccc4c3OCC43CCN(Cc4ccc(OCc5ccccc5)nc4)CC3)C2=O)C(=O)N1` (stereo not shown) [Compound A339, 3-(1′-((6-(benzyloxy)pyridin-3-yl)methyl)-6-oxo-6,8-dihydro-2H,7H-spiro[furo[2,3-e]isoindole-3,4′-piperidin]-7-yl)piperidine-2,6-dione], the DC50 was more than 500 nM and the Dmax lay in the range of 40 to 60%.

As to `O=C1CCC(N2Cc3c(ccc4c3OCC43CCN(Cc4ccc(S(=O)(=O)c5ccccc5)cc4)CC3)C2=O)C(=O)N1` (stereo not shown) [Compound A340, 3-(6-oxo-1′-(4-(phenylsulfonyl)benzyl)-6,8-dihydro-2H,7H-spiro[furo[2,3-e]isoindole-3,4′-piperidin]-7-yl)piperidine-2,6-dione], the DC50 was more than 500 nM and the Dmax fell in the range of 40 to 60%.

As for `COCCn1cc2cc(CN3CCC4(CC3)COc3c4ccc4c3CN(C3CCC(=O)NC3=O)C4=O)ccc2n1` (stereo not shown) [Compound A341, 3-(1′-((2-(2-methoxyethyl)-2H-indazol-5-yl)methyl)-6-oxo-6,8-dihydro-2H,7H-spiro[furo[2,3-e]isoindole-3,4′-piperidin]-7-yl) piperidine-2,6-dione], the DC50 is more than 500 nM and the Dmax is less than 40%.

Take `COCCn1ncc2cc(CN3CCC4(CC3)COc3c4ccc4c3CN(C3CCC(=O)NC3=O)C4=O)ccc21` (stereo not shown) [Compound A342, 3-(1′-((1-(2-methoxyethyl)-1H-indazol-5-yl)methyl)-6-oxo-6,8-dihydro-2H,7H-spiro[furo[2,3-e]isoindole-3,4′-piperidin]-7-yl)piperidine-2,6-dione]: the DC50 was more than 500 nM and the Dmax was less than 40%.

Turning to `COCCn1ncc2c(CN3CCC4(CC3)COc3c4ccc4c3CN(C3CCC(=O)NC3=O)C4=O)cccc21` (stereo not shown) [Compound A343, 3-(1′-((1-(2-methoxyethyl)-1H-indazol-4-yl)methyl)-6-oxo-6,8-dihydro-2H,7H-spiro[furo[2,3-e]isoindole-3,4′-piperidin]-7-yl)piperidine-2,6-dione], the DC50 was more than 500 nM and the Dmax is 40 to 60%.

As for `O=C1CCC(N2Cc3c(ccc4c3OCC43CCN(Cc4ccc5c(cnn5CCO)c4)CC3)C2=O)C(=O)N1` (stereo not shown) [Compound A344, 3-(1′-((1-(2-hydroxyethyl)-1H-indazol-5-yl)methyl)-6-oxo-6,8-dihydro-2H,7H-spiro[furo[2,3-e]isoindole-3,4′-piperidin]-7-yl)piperidine-2,6-dione], the DC50 was more than 500 nM and the Dmax lay within 40 to 60%.

With `O=C1CCC(N2Cc3c(ccc4c3OCC43CCN(Cc4ccc5nn(CCO)cc5c4)CC3)C2=O)C(=O)N1` (stereo not shown) [Compound A345, 3-(1′-((2-(2-hydroxyethyl)-2H-indazol-5-yl)methyl)-6-oxo-6,8-dihydro-2H,7H-spiro [furo[2,3-e]isoindole-3,4′-piperidin]-7-yl)piperidine-2,6-dione], the DC50 is more than 500 nM and the Dmax is less than 40%.

Regarding `CC(C)(c1ccccc1)n1cc(CN2CCC3(CC2)COc2c3ccc3c2CN([C@H]2CCC(=O)NC2=O)C3=O)cn1` [Compound A346, (S)-3-(6-oxo-1′-((1-(2-phenylpropan-2-yl)-1H-pyrazol-4-yl)methyl)-6,8-dihydro-2H,7H-spiro[furo[2,3-e]isoindole-3,4′-piperidin]-7-yl)piperidine-2,6-dione], the DC50 was less than 50 nM and the Dmax lay in the range of 60 to 80%.

Turning to `O=C1CC[C@H](N2Cc3c(ccc4c3OCC43CCN(Cc4cnn(CC5C[C@@H]5c5ccccc5)c4)CC3)C2=O)C(=O)N1` (stereo partly drawn) [Compound A347, (S)-3-(6-oxo-1′-((1-(((1S,2S)-2-phenylcyclopropyl)methyl)-1H-pyrazol-4-yl)methyl)-6,8-dihydro-2H,7H-spiro[furo[2,3-e]isoindole-3,4′-piperidin]-7-yl)piperidine-2,6-dione], the DC50 is less than 50 nM.

For `O=C1CC[C@H](N2Cc3c(ccc4c3OCC43CCN(Cc4cnn(C[C@H]5C[C@@H]5c5ccccc5)c4)CC3)C2=O)C(=O)N1` [Compound A347, (S)-3-(6-oxo-1′-((1-(((1S,2S)-2-phenylcyclopropyl)methyl)-1H-pyrazol-4-yl)methyl)-6,8-dihydro-2H,7H-spiro[furo[2,3-e]isoindole-3,4′-piperidin]-7-yl)piperidine-2,6-dione], the Dmax was 60 to 80%.

On to `O=C1CC[C@H](N2Cc3c(ccc4c3OCC43CCN(Cc4cnn(CC5(c6ccccc6)CC5)c4)CC3)C2=O)C(=O)N1` [Compound A348, (S)-3-(6-oxo-1′-((1-((1-phenylcyclopropyl)methyl)-1H-pyrazol-4-yl)methyl)-6,8-dihydro-2H,7H-spiro[furo[2,3-e]isoindole-3,4′-piperidin]-7-yl)piperidine-2,6-dione], for which the DC50 was less than 50 nM and the Dmax was 60 to 80%.

As to `O=C1CC[C@H](N2Cc3c(ccc4c3OCC43CCN(Cc4cnn(S(=O)(=O)c5ccccc5Cl)c4)CC3)C2=O)C(=O)N1` [Compound A349, (S)-3-(1′-((1-((2-chlorophenyl)sulfonyl)-1H-pyrazol-4-yl)methyl)-6-oxo-6,8-dihydro-2H,7H-spiro[furo[2,3-e]isoindole-3,4′-piperidin]-7-yl)piperidine-2,6-dione], the DC50 is less than 50 nM and the Dmax is 60 to 80%.

As to `O=C1CCC(N2Cc3c(ccc4c3OCC43CCN(Cc4cnn(S(=O)(=O)c5cccc(Cl)c5)c4)CC3)C2=O)C(=O)N1` [Compound A350, (S)-3-(1′-((1-((3-chlorophenyl)sulfonyl)-1H-pyrazol-4-yl)methyl)-6-oxo-6,8-dihydro-2H,7H-spiro[furo[2,3-e]isoindole-3,4′-piperidin]-7-yl)piperidine-2,6-dione], the DC50 is less than 50 nM.

In the case of `O=C1CC[C@H](N2Cc3c(ccc4c3OCC43CCN(Cc4cnn(S(=O)(=O)c5cccc(Cl)c5)c4)CC3)C2=O)C(=O)N1` [Compound A350, (S)-3-(1′-((1-((3-chlorophenyl)sulfonyl)-1H-pyrazol-4-yl)methyl)-6-oxo-6,8-dihydro-2H,7H-spiro[furo[2,3-e]isoindole-3,4′-piperidin]-7-yl)piperidine-2,6-dione], the Dmax lay in the range of 60 to 80%.

With `O=C1CCC(N2Cc3c(ccc4c3OCC43CCN(C[C@H]4C[C@H](Oc5ccc(F)cc5)C4)CC3)C2=O)C(=O)N1` (stereo partly shown) [Compound A351, 3-(1′-(((1r,3r)-3-(4-fluorophenoxy)cyclobutyl)methyl)-6-oxo-6,8-dihydro-2H,7H-spiro[furo[2,3-e]isoindole-3,4′-piperidin]-7-yl)piperidine-2,6-dione], the DC50 was more than 500 nM and the Dmax lay within 40 to 60%.

`O=C1CCC(N2Cc3c(ccc4c3OCC43CCN(Cc4cnn(S(=O)(=O)c5ccc(Cl)cc5)c4)CC3)C2=O)C(=O)N1` [Compound A352, (S)-3-(1′-((1-((4-chlorophenyl)sulfonyl)-1H-pyrazol-4-yl)methyl)-6-oxo-6,8-dihydro-2H,7H-spiro[furo[2,3-e]isoindole-3,4′-piperidin]-7-yl)piperidine-2,6-dione]: the DC50 was in the range of 200 to 500 nM.

Take `O=C1CC[C@H](N2Cc3c(ccc4c3OCC43CCN(Cc4cnn(S(=O)(=O)c5ccc(Cl)cc5)c4)CC3)C2=O)C(=O)N1` [Compound A352, (S)-3-(1′-((1-((4-chlorophenyl)sulfonyl)-1H-pyrazol-4-yl)methyl)-6-oxo-6,8-dihydro-2H,7H-spiro[furo[2,3-e]isoindole-3,4′-piperidin]-7-yl)piperidine-2,6-dione]: the Dmax is less than 40%.
